Ten compounds from PubChem BioAssay (NCI) can be followed below.

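How tested: cells in 96-well plates exposed to compound for 48 hours at five concentrations. GI50: concentration for 50% inhibition of growth. Definition used: TGI = concentration required for complete inhibition of growth.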

What all share (assay): NCI anticancer screen, dose series, 48 h
Experiment [1] concerns SF-268 CNS.
In experiment [2] the test system is SNB-19 CNS.
Experiment [3] concerns HOP-92 NSCLC.
In experiment [4] the test system is M14 melanoma.
In experiment [5] the test system is PC-3 prostate.
Experiment [6] concerns HT29 colon.
Experiment [7] relates to SK-MEL-28 melanoma.
Experiment [8] deals with COLO 205 colon.
For experiment [9], the system named is LOX IMVI melanoma.
The subject of experiment [10] is IGROV1 ovarian.

Regarding `NC(=NC1CCCCCC1)c1ccc(N2CCN(c3ccc(C(N)=NC4CCCCCC4)cc3)CC2)cc1`, the GI50 is 6.92 µM in [1]; 10.1 µM in experiment [2]; 8.29 µM in [3]; 8.74 µM in experiment [4]; 12.1 µM in [5]; 9.3 µM in experiment [6]. In addition, the GI50 in experiment [7] was 10.7 µM; in experiment [8], 14.7 µM; in experiment [9], 3.05 µM. In addition, the TGI in [1] is 15 µM; in [2], 27.1 µM; in experiment [3], 28.7 µM; in experiment [4], 30.5 µM; in experiment [5], more than 50 µM; in experiment [6], more than 50 µM. Moreover, the TGI in experiment [7] is 22.4 µM; in [8], more than 50 µM; in experiment [9], 20.3 µM.
On to `COc1ccc(/C=C(\C#N)c2cc(OC)c3c(c2)OCO3)cc1`, for which the GI50 in experiment [1] was less than 0.01 µM; in experiment [2], 0.0278 µM; in experiment [3], 8.09 µM; in [5], 0.0101 µM; in experiment [6], less than 0.01 µM; in [7], 0.0117 µM. For the same compound, the results for the GI50 in experiment [10], in [8] and in [9] were 0.0212 µM, less than 0.0124 µM and 0.0271 µM, respectively. Moreover, the TGI is 52.6 µM in experiment [1]; more than 100 µM in experiment [2]; 52.2 µM in experiment [3]; 38.1 µM in [5]; 0.694 µM in experiment [6]; 44.8 µM in experiment [7]. In addition, the TGI in experiment [10] is 32 µM; in experiment [8] it was 0.0521 µM; in experiment [9], more than 100 µM.
Turning to `c1cncc(C(Nc2cccc3cccnc23)Nc2cccc3cccnc23)c1`, the TGI in experiment [1], in [2], in experiment [3], in [4], in [5] and in experiment [6] was more than 100 µM throughout. Moreover, the TGI in experiment [10], in experiment [8] and in experiment [9] was more than 100 µM in each case.
In the case of `Cc1nc(NC(=S)Nc2ccc(F)cc2)sc1C(=O)NNC(=S)Nc1ccc(F)cc1`, the GI50 was 10.7 µM in experiment [1]; 8.39 µM in experiment [2]; 1.49 µM in experiment [3]; 20.2 µM in [4]; 4.38 µM in experiment [5]; 8.58 µM in experiment [6]. Moreover, the GI50 in experiment [7] is 8.65 µM; in experiment [8], 7.11 µM. Further, the TGI was 28.5 µM in experiment [1]; 66.5 µM in experiment [2]; 7.25 µM in experiment [3]; more than 100 µM in experiment [4]; 80.7 µM in experiment [5]; 25.3 µM in experiment [6]. Further, the results for the TGI in [7] and in [8] were 28.3 µM and 20 µM, respectively.
Regarding `Cn1c2ccc([N+](=O)[O-])cc2c(=O)c2c(O)cc(O)cc21`, the TGI in [1] was 80.2 µM; in experiment [2] it was more than 100 µM; in experiment [3], 96.3 µM; in [4] it was more than 100 µM; in experiment [5], more than 100 µM; in [7], more than 100 µM. Also, the TGI in experiment [10] was 45.3 µM; in experiment [8], more than 100 µM; in [9], more than 100 µM.
In the case of `CCOC(=O)[C@@H](C)C[C@H](Cc1ccccc1)NC(=O)c1csc([C@@H](C[C@H](C(C)C)N(C)C(=O)[C@H](CCC(C)C)NC(=O)[C@H]2CCCCN2C)OC(C)=O)n1`, the GI50 is 0.0205 µM in experiment [1]; less than 0.00333 µM in experiment [2]; 0.658 µM in experiment [3]; less than 0.00333 µM in experiment [5]; less than 0.00333 µM in experiment [6]; 0.00335 µM in experiment [10]. Also, the values for the GI50 in experiment [8] and in [9] were 0.00439 µM and 0.0133 µM, respectively. The TGI in experiment [1] stood at 5.87 µM; in experiment [2], 10.7 µM; in experiment [3] it was 23.3 µM; in [5], 7.15 µM; in experiment [6] it was 0.0811 µM; in experiment [10] it was 29.8 µM. Besides, the TGI in experiment [8] is 0.0352 µM; in experiment [9], 4.85 µM.
Turning to `N#CC(C#N)=CN1CCN(C(=O)c2ccccc2)C1=S`, the GI50 in [1] was 21.3 µM; in experiment [2] it was more than 100 µM; in [3] it was 56.8 µM; in experiment [4], 37.3 µM; in [5], 60 µM; in [6], 42 µM. In addition, the GI50 in [7] was 45.4 µM; in [10], 28.2 µM; in [9], more than 100 µM. Further, the TGI in experiment [1] is 49 µM; in [2], more than 100 µM; in experiment [3], more than 100 µM; in experiment [4] it was more than 100 µM; in experiment [5] it was more than 100 µM; in experiment [6] it was more than 100 µM. Moreover, the TGI in experiment [7], in experiment [10] and in experiment [9] was more than 100 µM each time.
Consider `Cl.Fc1c[c-]c(-c2ccccn2)c(F)c1.[Pt].c1ccc([PH+](CC[PH+](c2ccccc2)c2ccccc2)c2ccccc2)cc1`, for which the GI50 in [2] was 0.0656 µM; in experiment [3] it was 0.121 µM; in [4], 0.0741 µM; in experiment [5], 0.0514 µM; in [7] it was 0.167 µM. Also, the TGI worked out at 1.26 µM in [2]; 0.422 µM in [3]; 1.22 µM in [4]; 1.09 µM in experiment [5]; 1.4 µM in [7].
Consider `CN(C)CCNC(=O)c1cc([N+](=O)[O-])ccn1`, for which the TGI is 70.7 µM in experiment [1]; more than 100 µM in experiment [2]; more than 100 µM in [4]; 61.4 µM in experiment [5]; 48.1 µM in experiment [6]; more than 100 µM in [7]. Further, the TGI in experiment [10] is more than 100 µM; in experiment [8] it was 26.3 µM; in [9], 96.9 µM.
Take `Cc1ccc2c(=O)[nH]sc2c1`: the TGI was 39 µM in [1]; more than 100 µM in experiment [2]; 23.9 µM in experiment [4]; 29.1 µM in experiment [5]; 32.3 µM in experiment [6]; 38.4 µM in [7]. Further, the values for the TGI in experiment [10], in experiment [8] and in experiment [9] were 35.3 µM, 16.7 µM and 32.9 µM, respectively.
